Laboratory results from US20210215694A1, “FILM OF CHITOSAN AND A DEVICE COMPRISING THE SAME DEPOSITED ON A SUBSTRATE AND USES THEREOF” (priority 2018, published 2021).
Like-named read-outs stand apart in the source and are kept apart here.

Columns and labels:
UTI 687 cells = assay: Cell death detection with propidium iodide stain on chitosan χ1; assay type: cell-based, Escherichia coli; details: 3 mg/L, 50 μL/mL of PI
Description: Following the protocol described in material and methods, UTI 687 cells were contacted with chitosan χ1 surface. Before acquisition, channel was rinsed with LB supplemented with 3 mg/L of ETP and 50 μL/mL of PI (FIG. 11B).

UTI 687 [1] = assay: Antibiotic susceptibility from blood culture on chitosan χ1; assay type: cell-based, Escherichia coli; details: UTI 687 grown in blood culture vial
Description: Antibiotic susceptibility from blood culture. UTI 687 was cultivated in LB medium and then diluted to obtain a cell concentration close to the one find in blood during septicemia (final concentration: 5 CFU/ml). The suspension was then inoculated in culture vial for blood culture. After over-night culture (agitation, 37° C.), culture suspension was diluted in LB media for a final OD=0.01. Cells are then prepared as describe in material and method to determine cell susceptibility to ETP.
Antibiotic susceptibility from blood culture. […] These debris probably originate from blood culture media. However, it was possible to determine a CMI: CMIχ1≤1, which is coherent with the expected values.

UTI 227 = assay: Dose-dependent answer: time for cell death; assay type: cell-based, Escherichia coli; details: different concentrations
Description: (§1) Dose-dependent answer. Ertapenem (ETP) is an antibiotic used in the medical field in order to determine MIC. ETP was tested at different concentrations on UTI 227 and for each cell observed, the time for cell death was quantified (FIGS. 7B and 7C). […] Similarly, UTI 687 was contacted with different concentration of mecillinam (MEC), and the cell width was quantified.

UTI227 [2] = details: for Outcome: UTI227
Description: CMI determination. Different channels were prepared simultaneously with the same cell suspension. Antibiotic was prepared at different concentrations (one channel contained only LB as a control) and added to channel just before image acquisition: each channel contain a different antibiotic concentration. A picture was taken every 2 or 3 minutes in each channel. At the end of the acquisition we determined if concentrations tested induced cell death or not.
(§2) Minimum inhibitory concentration. Several experiments were performed with different ETP concentrations added to UTI 227 cells.

UTI227 [3] = assay: CMI by Vitek; assay type: cell-based, Escherichia coli
Description: as §2

K12 cells = details: K12 on commercial chitosan; 50 μL/mL PI; after 30 seconds
Description: Propidium iodide (PI) is used as a DNA stain which cannot cross the membrane of live cells, making it useful to differentiate dead, dying and healthy cells. K12 cells were immobilized to commercial chitosan on microfluidic chamber (channels in PDMS) in presence or absence of EtOH 70%. Channels were rinsed with LB, 50 μL/mL PI.

UTI704 [4] = assay: CMI (MIC) determination on chitosan χ1 channels; assay type: cell-based, Escherichia coli
Source text: (§3) For each conditions, a similar result was obtained.

UTI698 [5] = assay: CMI (MIC) determination on chitosan χ1 channels; assay type: cell-based, Escherichia coli
Source text: as §3

UTI 687 [6] = assay: Dose-dependent answer: cell width; assay type: cell-based, Escherichia coli; details: 2 mg/L, after 1 hour of contact
Description: as §1

UTI704 [7] = assay: CMI by Vitek; assay type: cell-based, Escherichia coli
Source text: as §3

UTI698 [8] = assay: CMI by Vitek; assay type: cell-based, Escherichia coli
Source text: as §3

UTI687 [9] = assay: CMI (MIC) determination on chitosan χ1 channels; assay type: cell-based, Escherichia coli
Source text: as §3

UTI687 [10] = assay: CMI by Vitek; assay type: cell-based, Escherichia coli
Source text: as §3

K12 = assay: Visualization of antibiotics susceptibility; assay type: cell-based, Escherichia coli
Description: Visualization of antibiotics susceptibility. Two channels were prepared with K12, identically. Before starting picture acquisition, one channel was rinsed with LB media, the other one with LB media supplemented with 100 μg/ml of ampicillin. […] Morphological changes were observed earlier than 1 hour and cell death imaged by lysis occurred right after 2 hours of incubation.

[11] = concentration 0.25 (head mg/ml, title mg/L)
[12] = concentration 0.5 (head mg/ml, title mg/L)
[13] = concentration 1 (head mg/ml, title mg/L)
[14] = concentration 2 (head mg/ml, title mg/L)

In the case of `C[C@@H](O)[C@H]1C(=O)N2C(C(=O)O)=C(S[C@@H]3CN[C@H](C(=O)Nc4cccc(C(=O)O)c4)C3)[C@H](C)[C@H]12` [Ertapenem], the “Propidium iodide staining of cells” value (UTI 687 cells) is reported as “some cells turned in red”, the CMIχ1 (UTI 687 [1]) is reported as at most 1 and the “Time for cell death according to concentration” value (UTI 227) is reported as “significantly faster for a higher concentration”. The “Concentration above which a cytotoxic effect was observed” value (UTI227 [2]) was “above 0.01 mg/L”, the Outcome (UTI227 [2]; concentration 0.01 (mg/L)) was “Growth” and the Outcome (UTI227 [2]; concentration 0.05 (mg/L)) was “Death”. The Outcome (UTI227 [2]; concentration 0.1 (mg/L)) was “Death”, the Outcome (UTI227 [2]; concentration 0.125 (mg/L)) was “Death” and the Outcome (UTI227 [2]; concentration 0.25 (mg/L)) was “Death”. For the same molecule, the Outcome (UTI227 [2]; concentration 0.5 (mg/L)) was “Death”, the Outcome (UTI227 [2]; concentration 0.75 (mg/L)) was “Death” and the “CMI (Vitek)” value (UTI227 [3]) was at most 0.5 mg/L. The “CMI (Vitek)” value (UTI227 [3]; listed as ETP) was at most 0.5 mg/L.

`CCO` [EtOH 70%, EtOH] was tested, and the “Propidium iodide fluorescence of cells” value (K12 cells) was “all the cells incubated with EtOH were fluorescent”.

`CC1(C)S[C@@H]2[C@H](/N=C/N3CCCCCC3)C(=O)N2[C@H]1C(=O)O` [Mecillinam, mecillinam] was tested, and the “CMI (measured)” value (UTI704 [4]; chitosan χ1) was at most 2 mg/L, the Outcome (UTI704 [4]; [11]) was “Growth” and the Outcome (UTI704 [4]; [12]) was “Growth”. The Outcome (UTI704 [4]; [13]) was “Growth”, the Outcome (UTI704 [4]; [14]) was “Death” and the “CMI (measured)” value (UTI698 [5]; chitosan χ1) was at most 1 mg/L. The Outcome (UTI698 [5]; [13]) was “Death”, the Outcome (UTI698 [5]; [14]) was “Death” and the Outcome (UTI698 [5]; concentration 5 (head mg/ml, title mg/L)) was “Death”. The Cell width (UTI 687 [6]) was “An augmentation was observed”, the Outcome (UTI227 [2]; concentration 4 (mg/L)) was “Growth” and the Outcome (UTI227 [2]; concentration 8 (mg/L)) was “Death”. The Outcome (UTI227 [2]; concentration 12 (mg/L)) was “Death”, the Outcome (UTI227 [2]; concentration 16 (mg/L)) was “Death” and the “CMI (Vitek)” value (UTI704 [7]) was 2 mg/L. For the same molecule, the “CMI (Vitek)” value (UTI698 [8]) was at most 1 mg/L and the “CMI (Vitek)” value (UTI227 [3]) was 8 mg/L.

In the case of `CC1COc2c(N3CCN(C)CC3)c(F)cc3c(=O)c(C(=O)O)cn1c23` (stereo not shown) [Ofloxacin, ofloxacin], the “CMI (measured)” value (UTI687 [9]; chitosan χ1) is reported as at most 0.25 mg/L, the Outcome (UTI687 [9]; [11]) is reported as “Death” and the Outcome (UTI687 [9]; [12]) is reported as “Death”. The Outcome (UTI687 [9]; [13]) was “Death”, the Outcome (UTI687 [9]; [14]) was “Death” and the “CMI (Vitek)” value (UTI687 [10]) was 0.5 mg/L.

For `CC1(C)S[C@@H]2[C@H](NC(=O)[C@H](N)c3ccccc3)C(=O)N2[C@H]1C(=O)O` [ampicillin], the “Time at which morphological changes were observed” value (K12; 100 μg/ml) was under 1 hour, the “Time of cell death imaged by lysis” value (K12; 100 μg/ml, incubation) was about 2 h and the “Effect on cells (in words)” value (K12; LB supplemented with 100 μg/ml) was “cells extended but did not divide”.
